The text below walks through data of ChEMBL document CHEMBL1201862, “PubChem BioAssay data set” (2004).

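Five concentrations, 48 hours, 96-well plates. GI50 is the concentration that inhibits growth by half.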 The source made the active and inactive calls. Cut-off read from the data, not from the text of the source: active = GI50 up to about 1.1 µM and inactive = higher. Starred links: 1 amine or outer side, 2 acyl side, 3 side chain; linkers in the order of their positions; H or OH if unused. Non-standard residues stand in square brackets, D forms with d. Residues, ends and D or L forms follow the SMILES beside them. X4 = C[C@H](N[*:1])C(=O)C(C)(C)C(=O)[*:2]; Hmpa(2S,3S) = CC[C@H](C)[C@H](O)C(=O)O; NMeY = CN[C@@H](Cc1ccc(O)cc1)C(=O)O; NMeL = CN[C@@H](CC(C)C)C(=O)O; NMeV = CN[C@H](C(=O)O)C(C)C; βAla = NCCC(=O)O

Assay in all cases: inhibition of tumour cell growth, NCI panel, 48 h
Test [1] relates to MCF7.
In test [2] the test system is BT-549.
Test [3] deals with DMS-114.
Test [4] relates to LXFL 529.
For test [5], the system named is SNB-78.
Test [6] concerns M19-MEL.
Test [7] relates to HOP-18.
In test [8] the test system is XF498.

Turning to `O=C(O)CCC(=O)Nc1ccc2ccccc2c1`, the GI50 in test [1] and in test [2] was > 100 µM (inactive) each time.
As to `COc1ccc(-n2c(=O)c3nc(S)[nH]c3n(-c3ccc(OC)cc3)c2=S)cc1`, the GI50 in test [1] and in test [2] was > 100 µM (inactive) each time.
With `CC(=O)C1C(=O)C(C(C)=O)C2C3C=CC(C3)C12` (stereo unspecified), the GI50 in test [1] and in test [2] was > 100 µM (inactive) in each case.
Regarding `O=C1C=C/C(=N\c2ccc3c(c2)C(Br)c2ccccc2-3)O1` (stereo unspecified), the GI50 in test [3] was 92.7 µM (inactive); in test [4] it was 28.8 µM (inactive); in test [5], > 100 µM (inactive); in test [6] it was > 100 µM (inactive).
For `CN1CCOC(C(NC(=O)c2ccccc2)c2ccccc2)C1=O` (stereo unspecified), the GI50 in test [7], in test [5] and in test [6] was > 100 µM (inactive) in each case.
For `O=C(NC1CCCCCC1)C1C(=O)N(C2CCCCCC2)C(=O)/C1=N\O` (stereo unspecified), the GI50 in test [7] was 48.9 µM (inactive); in test [3], 33 µM (inactive); in test [4], 31.8 µM (inactive); in test [5], 34.3 µM (inactive); in test [6] it was 28.2 µM (inactive).
For `COc1ccc(NC(=S)c2ccoc2C)cc1CC(=O)OC(C)C`, the GI50 in test [1] was 22 µM (inactive); in test [2] it was > 10 µM (inactive).
On to `Cc1c2c(OCC3CCCCO3)nn(C)c(=O)c2c(C)n1-c1ccccc1` (stereo unspecified), for which the GI50 in test [1] was 14.9 µM (inactive); in test [2], 19.7 µM (inactive).
On to `O=C(O)c1cnc(-n2[nH]c3c(c2=O)CCCC3)[nH]c1=O`, for which the GI50 in test [2] was > 100 µM (inactive).
With `COc1cc(OC)c(/C=C/c2cnc3ccccc3n2)c(OC)c1`, the GI50 in test [1] and in test [2] was > 10 µM (inactive) in each case.
For `Cc1ccccc1-n1c(=O)nc2n(-c3ccc(C(C)(C)C)cc3)c3ccccc3cc-2c1=O`, the GI50 was 22.9 µM (inactive) in test [1] and 25.7 µM (inactive) in test [2].
For the molecule `O=P1(c2ccccc2)c2ccccc2CCc2ccccc21`, the GI50 in test [1] was > 100 µM (inactive); in test [2], 99.5 µM (inactive).
In the case of `CCOc1cccc(/C=N/N=C2\C(=O)Nc3c(Cl)cc(Cl)cc32)c1O`, the GI50 in test [1] is 57.5 µM (inactive); in test [2], 39.6 µM (inactive).
In the case of `CCOP(=O)(OCC)C(c1ccc(F)cc1)N(C(=O)NC(F)(F)F)c1cccc(C(F)(F)F)c1` (stereo unspecified), the GI50 in test [1] and in test [2] was > 100 µM (inactive) each time.
Take `COC(=O)C1c2cc3c(cc2C(OC2OC(C)C(OC)C(C)(OC)C2OC)CC1(C)O)C(=O)c1c(O)cc2c(c1C3=O)OC1OC2(C)C(O)C([N+](C)(C)[O-])C1O` (stereo unspecified): the GI50 in test [1] was 0.149 µM (active); in test [2] it was 0.179 µM (active).
As to `O=C(CN1CCOCC1)CC(O)(C(F)(F)F)C(F)(F)F`, the GI50 in test [1] and in test [2] was > 100 µM (inactive) each time.
With `CC(CSC(=N)N)C(N)=O` (stereo unspecified), the GI50 in test [1] and in test [2] was > 100 µM (inactive) each time.
For `NC(=O)C(=O)C(c1ccccc1)S(=O)(=O)Cc1ccccc1` (stereo unspecified), the GI50 in test [1] and in test [2] was > 100 µM (inactive) in each case.
On to `CN(C)CC1CCCC(CN(C)C)C1OC(=O)c1ccccc1` (stereo unspecified), for which the GI50 in test [7], in test [4], in test [5] and in test [6] was > 100 µM (inactive) each time.
In the case of `CC(=O)/C(=C\NC(N)=S)C(=O)Nc1ccccc1C`, the GI50 in test [1] and in test [2] was > 100 µM (inactive) throughout.
Consider `COc1cc(C2C3=C(COC3=O)Oc3cc4c(cc32)OCO4)ccc1OC(C)=O` (stereo unspecified), for which the GI50 is 0.29 µM (active) in test [1] and 0.222 µM (active) in test [2].
On to `CCc1ccc2oc(-c3cc(O)c(-c4nc5cc(CC)ccc5o4)cc3O)nc2c1`, for which the GI50 in test [1] was > 100 µM (inactive).
Turning to `CCOC(=O)C(NC(=O)c1cccc(Cl)c1)(Nc1cccc(C)c1)C(F)(F)F` (stereo unspecified), the GI50 in test [1] was 19 µM (inactive); in test [2] it was 13 µM (inactive).
For `C=C1C(=O)O[C@H]2[C@H](OC(C)=O)[C@@H](C)CCC/C(C)=C/CC[C@@]3(C)O[C@@H]3C[C@@H]12` the same measures were 2.31 µM (inactive) and 2.94 µM (inactive).
For `O=C(O)CCN1CCN(CCC(=O)O)CCN(CCC(=O)O)CC1` the same measures were 98.2 µM (inactive) and > 100 µM (inactive).
For `O=c1c2cc(-c3ccccc3)cnc2sn1-c1ccc(Oc2ccccc2)cc1` the same measures were 52.5 µM (inactive) and 23.2 µM (inactive).
For the molecule `COc1ccc(/C=C2\CC3C4CC=C5C[C@@H](N6CCCC6)CC[C@]5(C)C4CC[C@]3(C)[C@H]2O)cc1OC` (stereo partly specified), the GI50 in test [1] is 7.55 µM (inactive); in test [2], 8.87 µM (inactive).
For `CC[C@@H]1/C=C/C=C/C[C@H](C)[C@@H](O)[C@](C)(O)C(=O)[C@H](C)[C@@H](O)[C@H](C)C(=O)[C@H](C)[C@@H](O)[C@H](C)/C=C/C(=O)O[C@H]2[C@@H](C)[C@@H](CC1)O[C@]1(O[C@H](CC(C)O)[C@H](C)CC1=O)[C@@H]2C` (stereo partly specified) the same measures were < 0.0025 µM (active) and 3.75 µM (inactive).
Take `CC(C)(C)C1=C(Br)C(F)(C(C)(C)C)OP1(=O)c1ccccc1` (stereo unspecified): the GI50 in test [1] was 15.8 µM (inactive).
Still for that read-out and setting: with `COC(=O)c1cc2c(c3c1CC(Cc1ccccc1)C3=O)CCC2` (stereo unspecified) the figure was 69.7 µM (inactive).
Consider `CS(=O)(=O)c1nc(-c2cc3c(c(S(C)(=O)=O)n2)CCC3)cc2c1CCCC2`, for which, in test [2], the GI50 is 32.1 µM (inactive).
For `N#CC1(C#N)C=CC(=C2OCC3CCCN23)C=C1` (stereo unspecified), the GI50 in test [7], in test [3], in test [4], in test [5] and in test [6] was > 100 µM (inactive) in each case.
On to `Cc1cccc(N2CCN(S(=O)(=O)c3ccc(Cl)cc3)C2=N)c1C`, for which the GI50 in test [1] and in test [2] was > 100 µM (inactive) each time.
`c1ccc(-c2cc(-c3ccccc3)nc(-c3ccncc3)c2)cc1`: the GI50 in test [1] and in test [2] was > 100 µM (inactive) each time.
Turning to `O=c1c2sc(=S)n(-c3ccc(F)cc3)c2ncn1/N=C/c1ccc(F)cc1F`, the GI50 was 41.5 µM (inactive) in test [1] and 15.4 µM (inactive) in test [2].
For `COc1ccc(/N=N/C(=O)NC(CC(C)C)C(=O)NCC(=O)O)cc1` (stereo unspecified) the same measures were 13.2 µM (inactive) and > 38.7 µM (inactive).
Take `C1=C2C3=[N+](CCCC3)CC2Cc2ccsc21` (stereo unspecified): the figures for the GI50 in test [1] and in test [2] were > 100 µM (inactive) and 81.3 µM (inactive), respectively.
Turning to `CC(C)=CCC[C@@H](C)C1=C(O)C(=O)C(C)=C(c2c(I)c(=O)n(C)c(=O)n2C)C1=O`, the GI50 in test [1] and in test [2] was > 100 µM (inactive) throughout.
`COc1cc(C(=O)Oc2c(C#N)sc3c2c(=O)n(-c2ccccc2)c(=S)n3-c2ccccc2)cc(OC)c1OC`: in test [1], the GI50 is 22.9 µM (inactive).
`CC(C)(C)C(=O)Nc1c(C=O)ccc2[nH]cnc12`: the GI50 is 60.1 µM (inactive) in test [1] and > 100 µM (inactive) in test [2].
As for `CN1C(=O)c2ccccc2NC(=O)C12O[C@@H]2c1cccc(O)c1` (stereo partly specified), in test [1], the GI50 is > 100 µM (inactive).
Consider `C1C2CC3CC1CC(Nc1nc(NC45CC6CC(CC(C6)C4)C5)nc(NC45CC6CC(CC(C6)C4)C5)n1)(C2)C3`, for which the GI50 in test [1] is 55.1 µM (inactive); in test [2], > 68.2 µM (inactive).
For `CS(=O)(=O)O[C@H]1[C@H](O)c2ccccc2[C@@H]1N=[N+]=[N-]` the same measures were > 100 µM (inactive) and > 100 µM (inactive).
In the case of `Cc1cccc2c1CC1(C2)Cc2c(C)cccc2C1=O` (stereo unspecified), the GI50 in test [1] was 27.2 µM (inactive).
For the molecule `COc1ccccc1/C=C1\C(=O)N(C(=O)c2ccc(NC(C)=O)cc2)N=C1C`, the GI50 in test [8], in test [3], in test [5] and in test [6] was > 100 µM (inactive) throughout.
`CC(C)(C)c1cc(CCCCCCCC2(CCCCCCCc3cc(C(C)(C)C)cc(C(C)(C)C)c3)OC(COCCOCCCCCC#N)C(COCCOCCCCCC#N)O2)cc(C(C)(C)C)c1` (stereo unspecified): the GI50 in test [7], in test [3], in test [4], in test [5] and in test [6] was > 100 µM (inactive) each time.
`COC(=O)[C@H](Cc1c[nH]c2ccccc12)NP(=O)(O)OC[C@H]1O[C@@H](n2cc(C)c(=O)[nH]c2=O)C[C@@H]1N=[N+]=[N-]`: the GI50 in test [1] and in test [2] was > 100 µM (inactive) in each case.
For the molecule `CC(=O)O[C@H]1C(=O)[C@@]2(C)C(C(OC(=O)c3ccccc3)[C@]3(O)CC(OC(=O)C(O)C(NC(=O)c4cccc(Cl)c4)c4ccccc4)C(C)=C1C3(C)C)[C@]1(OC(C)=O)CO[C@@H]1C[C@@H]2O` (stereo partly specified), the GI50 in test [1] was 0.344 µM (active); in test [2], 6.58 µM (inactive).
For `O=C1Nc2ccccc2/C1=N/Nc1ccccc1[N+](=O)[O-]` the same measures were > 100 µM (inactive) and 49.1 µM (inactive).
As to `CN(C)c1ccc(/C=C/c2nc3ccccc3s2)cc1`, the GI50 was > 100 µM (inactive) in test [1] and 80 µM (inactive) in test [2].
For the molecule `COc1cc(OC)c2c(=O)cc(-c3ccc(OC)c(OC)c3OC)oc2c1`, the GI50 in test [8] was > 100 µM (inactive); in test [3], > 100 µM (inactive); in test [4], 89.5 µM (inactive); in test [6] it was > 100 µM (inactive).
With `CC[C@H](C)[C@@H]1OC(=O)CCNC(=O)[C@@H](C)NC(=O)C(C)(C)C(=O)[C@H](C)NC(=O)[C@H](Cc2ccc(OC)cc2)N(C)C(=O)[C@H](C(C)C)N(C)C(=O)CNC(=O)[C@H](CC(C)C)N(C)C(=O)CNC1=O` (cyclo(G[NMeL]G[NMeV][NMeY](Me)[X4][dA][βAla][Hmpa(2S,3S)])), the GI50 in test [1] was 0.387 µM (active); in test [2], 2.81 µM (inactive).
As for `COc1cc(Cn2c3ccccc3c3cc(C)c4c(c32)C=CC(C)(CCC=C(C)C)O4)cc2c1[nH]c1ccccc12` (stereo unspecified) [CHRESTFOLINE C], the GI50 in test [7] is > 100 µM (inactive); in test [3], > 100 µM (inactive); in test [4], 88.5 µM (inactive); in test [5], > 100 µM (inactive); in test [6], > 100 µM (inactive).
For the molecule `C=C(Cl)[C@](Cl)(CBr)CC[C@@H](Br)C(C)(C)Cl` [HALOMON], the GI50 in test [1] was 0.822 µM (active); in test [2], 1.29 µM (inactive).
